# Test results reported in paper PMC10729961, “Putative purine nucleoside interacting residues in the malaria parasite purine uptake transporter PfENT1 are critical for transporter function” (PLOS ONE, 2023).
# Assays:
# Type in all cases: cell-based
# [1] = system: yeast expressing I137C PfENT1; test: 24-h adenosine-dependent growth assay; conditions: mean±SEM
# Description: (§1) The Bioscreen C (Model #: 61400PRO) machine was used to measure proliferation of yeast expressing either wild type or mutant PfENT1 in 24-h assays. Yeast strains were grown overnight in SDM media plus 1 mM adenine. Yeast were spun down and resuspended in sterile water. Yeast were added into wells of honeycomb plates specific for the Bioscreen C (Fisher Scientific Cat No. #NC9976780) to achieve a final OD600 of 0.05 in the total volume of 150 μl per well of yeast and media. […] Each trial contained technical triplicates of every sample. The honeycomb plates were placed in the Bioscreen C where they were shaken continuously on high for 24-h at 30°C. OD600 was measured every 15 min.
# (§2) For calculating the doubling time, the formula used was: Dt=ln(2)/kwherek=thegrowthrate
# (§3) The k was calculated in Excel using the OD600 values in the growth curve that represented exponential growth (OD600 between 0.2 and 0.6). Alternatively, this formula can also be used: Dt=ln(2)/([ln(OD2)−ln(OD1)]/t2−t1)
# [2] = system: yeast expressing WT PfENT1; test: 24-h adenosine-dependent growth assay; conditions: mean±SEM; for Avg. Doubling time (h) Adenosine growth assay 1 mM: 1 mM adenosine sole purine source; for Avg. Doubling time (h) Adenosine growth assay 2 mM: 2 mM adenosine sole purine source
# Description: as §1, §2, §3
# [3] = system: yeast expressing L50C PfENT1; test: 24-h adenosine-dependent growth assay; conditions: for Avg. Doubling time (h) Adenosine growth assay 1 mM: 1 mM adenosine sole purine source; for Avg. Doubling time (h) Adenosine growth assay 1 mM / Avg. Doubling time (h) Adenosine growth assay 2 mM: 24 h, mean±SEM; for Avg. Doubling time (h) Adenosine growth assay 2 mM: 2 mM adenosine sole purine source
# Description: as §1, §2, §3
# [4] = system: yeast expressing S49C PfENT1; test: 24-h adenosine-dependent growth assay; conditions: mean±SEM
# Description: as §1, §2, §3
# [5] = system: yeast expressing F286C PfENT1; test: 24-h adenosine-dependent growth assay
# Description: as §1, §2, §3
# [6] = system: yeast expressing A134C PfENT1; test: 24-h adenosine-dependent growth assay; conditions: mean±SEM
# Description: as §1, §2, §3
# [7] = system: yeast expressing N51C PfENT1; test: 24-h adenosine-dependent growth assay; conditions: mean±SEM
# Description: as §1, §2, §3
# [8] = system: yeast expressing L289C PfENT1; test: 24-h adenosine-dependent growth assay; conditions: mean±SEM
# Description: as §1, §2, §3
# [9] = system: yeast expressing T136C PfENT1; test: 24-h adenosine-dependent growth assay; conditions: mean±SEM
# Description: as §1, §2, §3
# [10] = system: yeast expressing V52C PfENT1; test: 24-h adenosine-dependent growth assay; conditions: mean±SEM
# Description: as §1, §2, §3
# [11] = system: yeast expressing F288C PfENT1; test: 24-h adenosine-dependent growth assay; conditions: mean±SEM
# Description: as §1, §2, §3
# [12] = system: yeast expressing S48C PfENT1; test: 24-h adenosine-dependent growth assay; conditions: mean±SEM
# Description: as §1, §2, §3
# [13] = system: purine auxotrophic yeast (ade2Δ, fui1Δ); test: 24-h adenosine-dependent growth assay; parameters: key: Mutant strains that did not grow are indicated by (ng, no growth); conditions: ade2Δ strain
# Description: as §1, §2, §3
# [14] = system: yeast expressing D287C PfENT1; test: 24-h adenosine-dependent growth assay; parameters: key: Mutant strains that did not grow are indicated by (ng, no growth)
# Description: as §1, §2, §3
# [15] = system: yeast expressing S290C PfENT1; test: 24-h adenosine-dependent growth assay; parameters: key: Mutant strains that did not grow are indicated by (ng, no growth)
# Description: as §1, §2, §3
# [16] = system: yeast expressing W53C PfENT1; test: 24-h adenosine-dependent growth assay; parameters: key: Mutant strains that did not grow are indicated by (ng, no growth)
# Description: as §1, §2, §3
# [17] = system: yeast expressing R291C PfENT1; test: 24-h adenosine-dependent growth assay; parameters: key: Mutant strains that did not grow are indicated by (ng, no growth)
# Description: as §1, §2, §3
# [18] = system: yeast expressing Q135C PfENT1; test: 24-h adenosine-dependent growth assay; parameters: key: Mutant strains that did not grow are indicated by (ng, no growth)
# Description: as §1, §2, §3
# [19] = system: purine auxotrophic yeast (ade2Δ, fui1Δ); test: [3H]uridine uptake assay, competition with cold adenosine; conditions: ade2Δ strain; cold adenosine vs [3H]uridine uptake, 15 min
# Description: The radiolabeled uptake assay measures the ability of an unlabeled purine or pyrimidine substrate to inhibit the uptake of radiolabeled substrate into yeast via PfENT1 as previously described. Yeast strains containing PfENT1 (mutant or WT) were grown overnight in SDM media to a final OD600 between 0.2 and 0.5. Purine auxotrophic yeast used as a negative control were grown in YPD media. Yeast were spun down and washed three times with 15 mL phosphate buffered saline (PBS; 137 mM NaCl, 2.7 mM KCl, 10 mM KH2PO4, 10 mM Na2HPO4, pH 7.4). The final volume of yeast in PBS varied but it was diluted to a final OD600 = 0.2. […] For determination of minimal and maximal uptake, yeast strains were incubated without radioactivity or with radioactivity but no cold substrate competition, respectively. […] The amount of radioactivity in each well was measured by liquid scintillation counting using a 1450 MicroBeta TriLux (Perkin Elmer). The counts per minute (cpm) were recorded and technical triplicates were averaged. IC50 values were calculated, and statistical analysis was performed using GraphPad/Prism9 software. […]
# Statistical significance was calculated using one-way analysis of variance (ANOVA) with GraphPad/Prism9 software. IC50 values were calculated using the non-linear regression dose-response inhibition log(inhibitor) vs normalized response program. […]
# [20] = 1 mM adenosine sole purine source
# [21] = 2 mM adenosine sole purine source
compound,measurement,setting,value
"Nc1ncnc2c1ncn2[C@@H]1O[C@H](CO)[C@@H](O)[C@H]1O [Adenosine, adenosine]",Avg. Doubling time (h) Adenosine growth assay 1 mM,[1]; [20],3.99 ± 0.50 h
same,Avg. Doubling time (h) Adenosine growth assay 2 mM,[1]; [21],3.5 ± 0.16 h
same,Avg. Doubling time (h) Adenosine growth assay 1 mM,[2],3.13 ± 0.36 h
same,Avg. Doubling time (h) Adenosine growth assay 1 mM,[2]; listed as adenosine,3.1 h
same,Avg. Doubling time (h) Adenosine growth assay 2 mM,[2],3.72 ± 0.21 h
same,Avg. Doubling time (h) Adenosine growth assay 2 mM,[2]; listed as adenosine,3.7 h
same,Avg. Doubling time (h) Adenosine growth assay 1 mM,[3],5.83 ± 0.47 h
same,Avg. Doubling time (h) Adenosine growth assay 1 mM,[3]; listed as adenosine,5.8 h
same,Avg. Doubling time (h) Adenosine growth assay 2 mM,[3],7.16 ± 1.21 h
same,Avg. Doubling time (h) Adenosine growth assay 2 mM,[3]; listed as adenosine,7.2 h
same,increase of doubling time compared to WT PfENT1 control,[3]; in both 1 mM and 2 mM adenosine,1.9 fold
same,Avg. Doubling time (h) Adenosine growth assay 1 mM,[4]; [20],3.06 ± 0.28 h
same,Avg. Doubling time (h) Adenosine growth assay 2 mM,[4]; [21],2.99 ± 0.16 h
same,Avg. Doubling time (h) Adenosine growth assay 1 mM,[5]; [20],slow growth
same,Avg. Doubling time (h) Adenosine growth assay 2 mM,[5]; [21],slow growth
same,Avg. Doubling time (h) Adenosine growth assay 1 mM,[6]; [20],4.42 ± 0.25 h
same,Avg. Doubling time (h) Adenosine growth assay 2 mM,[6]; [21],4.09 ± 0.24 h
same,Avg. Doubling time (h) Adenosine growth assay 1 mM,[7]; [20],3.46 ± 0.26 h
same,Avg. Doubling time (h) Adenosine growth assay 2 mM,[7]; [21],3.89 ± 0.41 h
same,Avg. Doubling time (h) Adenosine growth assay 1 mM,[8]; [20],3.08 ± 0.25 h
same,Avg. Doubling time (h) Adenosine growth assay 2 mM,[8]; [21],3.12 ± 0.33 h
same,Avg. Doubling time (h) Adenosine growth assay 1 mM,[9]; [20],3.12 ± 0.27 h
same,Avg. Doubling time (h) Adenosine growth assay 2 mM,[9]; [21],3.06 ± 0.09 h
same,Avg. Doubling time (h) Adenosine growth assay 1 mM,[10]; [20],4.20 ± 0.23 h
same,Avg. Doubling time (h) Adenosine growth assay 2 mM,[10]; [21],3.78 ± 0.29 h
same,Avg. Doubling time (h) Adenosine growth assay 1 mM,[11]; [20],3.61 ± 0.60 h
same,Avg. Doubling time (h) Adenosine growth assay 2 mM,[11]; [21],3.57 ± 0.53 h
same,Avg. Doubling time (h) Adenosine growth assay 1 mM,[12]; [20],3.77 ± 0.17 h
same,Avg. Doubling time (h) Adenosine growth assay 2 mM,[12]; [21],3.68 ± 0.42 h
same,Avg. Doubling time (h) Adenosine growth assay 1 mM,"[13]; 1 mM adenosine sole purine source, mean±SEM",ng
same,Avg. Doubling time (h) Adenosine growth assay 2 mM,[13]; [21],ng
same,Avg. Doubling time (h) Adenosine growth assay 1 mM,[14]; [20],ng
same,Avg. Doubling time (h) Adenosine growth assay 2 mM,[14]; [21],ng
same,Avg. Doubling time (h) Adenosine growth assay 1 mM,[15]; [20],ng
same,Avg. Doubling time (h) Adenosine growth assay 2 mM,[15]; [21],ng
same,Avg. Doubling time (h) Adenosine growth assay 1 mM,[16]; [20],ng
same,Avg. Doubling time (h) Adenosine growth assay 2 mM,[16]; [21],ng
same,Avg. Doubling time (h) Adenosine growth assay 1 mM,[17]; [20],ng
same,Avg. Doubling time (h) Adenosine growth assay 2 mM,[17]; [21],ng
same,Avg. Doubling time (h) Adenosine growth assay 1 mM,[18]; [20],ng
same,Avg. Doubling time (h) Adenosine growth assay 2 mM,[18]; [21],ng
same,Average IC50 (μM) Adenosine,[19],no uptake
